Reference: ChEMBL document CHEMBL1240307, “A functional genomics approach to the mode of action of apratoxin A” (Nat Chem Biol, 2006)

How the values were obtained:
[1] = system: HT-29; test: Antitumor activity against human HT-29 cells assessed as upregulation of MGC4504 mRNA expression at 10 nM after 3 hrs relative to control; format: functional
[2] = system: HT-29; test: Antitumor activity against human HT-29 cells assessed as upregulation of HSPA1A mRNA expression at 2 nM after 6 hrs relative to control; format: functional
[3] = system: HT-29; test: Antitumor activity against human HT-29 cells assessed as down-regulation of GTSE1 mRNA expression at 10 nM after 6 hrs relative to control; format: functional
[4] = system: HT-29; test: Antitumor activity against human HT-29 cells assessed as down-regulation of CCNE2 mRNA expression at 2 nM after 12 hrs relative to control; format: functional
[5] = system: HT-29; test: Antitumor activity against human HT-29 cells assessed as upregulation of DDIT4 mRNA expression at 2 nM after 6 hrs relative to control; format: functional
[6] = system: HT-29; test: Antitumor activity against human HT-29 cells assessed as down-regulation of CCNE2 mRNA expression at 2 nM after 6 hrs relative to control; format: functional
[7] = system: HT-29; test: Antitumor activity against human HT-29 cells assessed as upregulation of MGC4504 mRNA expression at 10 nM after 12 hrs relative to control; format: functional
[8] = system: HT-29; test: Antitumor activity against human HT-29 cells assessed as down-regulation of RAB11B mRNA expression at 10 nM after 12 hrs relative to control; format: functional
[9] = system: U2OS; test: Cell cycle arrest in human U2OS cells assessed as accumulation at G1 phase at 5 nM after 48 hrs by FACS analysis (reference value: 49.8%); format: functional
[10] = system: MDA-MB-231; test: Cytotoxicity against human MDA-MB-231 cells by sulforhodamine B assay; format: functional
[11] = system: SF-268; test: Cytotoxicity against human SF268 cells by sulforhodamine B assay; format: functional
[12] = system: HT-29; test: Antitumor activity against human HT-29 cells assessed as down-regulation of GTSE1 mRNA expression at 2 nM after 6 hrs relative to control; format: functional
[13] = system: HCT-116; test: Cytotoxicity against human HCT116 cells by sulforhodamine B assay; format: functional
[14] = system: SR; test: Cytotoxicity against human SR cells by sulforhodamine B assay; format: functional
[15] = system: HT-29; test: Antitumor activity against human HT-29 cells assessed as down-regulation of TAL1 mRNA expression at 2 nM after 6 hrs relative to control; format: functional
[16] = Cytotoxicity against human […] cells by sulforhodamine B assay; format: functional
[17] = system: HT-29; test: Antitumor activity against human HT-29 cells assessed as down-regulation of CDC25A mRNA expression at 10 nM after 6 hrs relative to control; format: functional
[18] = system: PC-3; test: Cytotoxicity against human PC3 cells by sulforhodamine B assay; format: functional
[19] = system: HT-29; test: Antitumor activity against human HT-29 cells assessed as upregulation of RASSF4 mRNA expression at 10 nM after 6 hrs relative to control; format: functional
[20] = system: HT-29; test: Antitumor activity against human HT-29 cells assessed as upregulation of KCNK10 mRNA expression at 2 nM after 3 hrs relative to control; format: functional
[21] = system: HT-29; test: Antitumor activity against human HT-29 cells assessed as upregulation of HSPA1A mRNA expression at 2 nM after 12 hrs relative to control; format: functional
[22] = system: MCF7; test: Cytotoxicity against human MCF7 cells by sulforhodamine B assay; format: functional
[23] = system: HT-29; test: Antitumor activity against human HT-29 cells assessed as upregulation of HSPA1A mRNA expression at 10 nM after 3 hrs relative to control; format: functional
[24] = system: HT-29; test: Antitumor activity against human HT-29 cells assessed as upregulation of KCNK10 mRNA expression at 2 nM after 6 hrs relative to control; format: functional
[25] = system: NCI-H522; test: Cytotoxicity against human NCI-H522 cells by sulforhodamine B assay; format: functional
[26] = system: SK-MEL-28; test: Cytotoxicity against human SK-MEL-28 cells by sulforhodamine B assay; format: functional
[27] = system: HT-29; test: Antitumor activity against human HT-29 cells assessed as upregulation of KCNK10 mRNA expression at 10 nM after 6 hrs relative to control; format: functional
[28] = system: NCI-H322M; test: Cytotoxicity against human NCI-H322M cells by sulforhodamine B assay; format: functional
[29] = Cytotoxicity against activated human CD4+ T cells assessed as cell viability after 5 days by fluorescence detection method; format: cell-based; settings: 120 h
[30] = system: HT-29; test: Antitumor activity against human HT-29 cells assessed as upregulation of RASSF4 mRNA expression at 2 nM after 6 hrs relative to control; format: functional
[31] = system: HT-29; test: Antitumor activity against human HT-29 cells assessed as upregulation of DDIT4 mRNA expression at 2 nM after 3 hrs relative to control; format: functional
[32] = read-out: LC50 (the source's name)

CC[C@H](C)[C@H]1C(=O)N2CCC[C@H]2C(=O)O[C@H](C(C)(C)C)C[C@@H](C)C[C@H](O)[C@H](C)C2=N[C@@H](/C=C(\C)C(=O)N[C@@H](Cc3ccc(OC)cc3)C(=O)N(C)[C@@H](C)C(=O)N1C)CS2 [APRATOXIN A]
fold change (FC) [1]: <=2 | fold change (FC) [2]: 2.56 | fold change (FC) [3]: <=2 | fold change (FC) [4]: <=2 | fold change (FC) [5]: 10.37 | fold change (FC) [6]: <=2 | fold change (FC) [7]: 12.09 | fold change (FC) [8]: <=2 | inhibition at 0.005 µM [9]: 82.1% | GI50 [10]: 1.46 nM | GI50 [11]: 50.8 nM | fold change (FC) [12]: <=2 | GI50 [13]: 0.916 nM | GI50 [14]: 1.5 nM | CC50 [14, 32]: 27.4 nM | fold change (FC) [15]: <=2 | GI50 [16]: 1.28 nM | CC50 [16, 32]: 69 nM | fold change (FC) [17]: <=2 | GI50 [18]: 4.96 nM | fold change (FC) [19]: <=2 | fold change (FC) [20]: <=2 | fold change (FC) [21]: <=2 | GI50 [22]: 6.57 nM | fold change (FC) [23]: 2.21 | fold change (FC) [24]: 6.35 | GI50 [25]: 6.03 nM | GI50 [26]: 5.49 nM | fold change (FC) [27]: 7.38 | GI50 [28]: 3.99 nM | IC50 [29]: 60 nM | fold change (FC) [30]: <=2 | fold change (FC) [31]: 2.49
